Experimental data reported in patent US4474777A, “Benzodiazepine derivatives and their pharmaceutical use” (Hoffmann-La Roche Inc., priority 1982, dated 1984).

Tests used:
[1] = test system: intestinal resorption of cholesterol; assay: inhibition of the intestinal resorption of cholesterol (CHORES), radioactive cholesterol test feed, faeces radioactivity; assay type: in vivo, normal female albino rats; conditions: rats, 100 μmol/kg p.o.; faeces collected for three days; untreated control = 100%
Protocol: The substances to be investigated are administered to groups each comprising 6 normal female albino rats (body weight about 70 g) by means of a probang. Immediately thereafter the animals received by means of a probang a test feed containing a radioactive cholesterol. Thereafter, the faeces is collected for three days, freeze-dried and pulverized, and an aliquot is burnt in order to determine the radioactivity of the faeces. Untreated control animals excrete about 40-50% of the radioactive cholesterol taken up with the feed. The radioactive cholesterol which is not excreted is regarded as the resorbed cholesterol, the amount of resorbed cholesterol in the untreated control animals being arbitrarily fixed as 100%. Animals which have been treated with a substance inhibiting the intestinal resorption of cholesterol show a lower resorption of radioactive cholesterol than untreated control animals. The cholesterol resorption (CHORES) is expressed in percentages of the cholesterol resorption of untreated control animals.
(§1) In the following Table there are given the results obtained with representative products provided by the invention. There are given for each of the compounds listed therein the dosage administered (in μmol/kg p.o.) as well as the cholesterol resorption (CHORES) determined in percentages of the cholesterol resorption of untreated control animals. Moreover, the Table contains information concerning the acute toxicity of the compounds investigated (LD50 in mg/kg in the case of single oral administration to mice).

[2] = acute toxicity, single oral administration to mice; conditions: mouse, in vivo, single oral administration (p.o.)
From the text: as §1

| Compound | CHORES (cholesterol resorption in percentages of the cholesterol resorption of untreated control animals) [1] [%] | LD50 [2] [mg/kg] |
| --- | --- | --- |
| C[C@@H]1N=C(c2ccccc2Cl)c2c(ccc(NC(=O)NCC(O)CO)c2Br)N(C)C1=O (stereo partly drawn) [NHCH2 CH(OH)CH2 OH, 1-[(S)-6-bromo-5-(o-chlorophenyl)-2,3-dihydro-1,3-dimethyl-2-oxo-1H-1,4-benzodiazepin-7-yl]-3-(2,3-dihydroxypropyl)urea] | 24 |  |
| C[C@@H]1N=C(c2ccccc2Cl)c2c(ccc(NC(=O)NC(C)(CO)CO)c2Br)N(C)C1=O [NHC(CH3)(CH2 OH)2, 1-[(S)-6-bromo-5-(o-chlorophenyl)-2,3-dihydro-1,3-dimethyl-2-oxo-1H-1,4-benzodiazepin-7-yl]-3-[1,1-bis(hydroxymethyl)ethyl]urea] | 31 | > 5000 |
| C[C@@H]1N=C(c2ccccc2Cl)c2c(ccc(NC(=O)NCC3COC(C)(C)O3)c2Br)N(C)C1=O (some centres unmarked) | 25 |  |
| C[C@@H]1N=C(c2ccccc2Cl)c2c(ccc(NC(=O)NC3CCC(O)CC3)c2Br)N(C)C1=O (some centres unmarked) | 34 |  |
| C[C@@H]1N=C(c2ccccc2Cl)c2c(ccc(NC(=O)NC(CO)(CO)CO)c2Br)N(C)C1=O [NHC(CH2 OH)3, 1-[(S)-6-bromo-5-(o-chlorophenyl)-2,3-dihydro-1,3-dimethyl-2-oxo-1H-1,4-benzodiazepin-7-yl]-3-[2-hydroxy-1,1-bis(hydroxymethyl)ethyl]urea] | 30 | > 5000 |
| C[C@@H]1N=C(c2ccccc2Cl)c2c(ccc(NC(=O)N3CCCC(O)C3)c2Br)N(C)C1=O (some centres unmarked) | 44 |  |
